The source of these data is patent US8148493B2, “Method for inhibiting “melanoma inhibitory activity” MIA” (Antisense Pharma GmbH, priority 2002, dated 2012).

The target in one assay is T1, MIA (Homo sapiens, UniProt Q16674).
T1 sequence (Q16674 25-131): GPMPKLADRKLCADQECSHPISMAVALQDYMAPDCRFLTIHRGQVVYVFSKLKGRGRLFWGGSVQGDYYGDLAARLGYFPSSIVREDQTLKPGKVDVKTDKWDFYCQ
The assay can be described thus: Boyden Chamber assay, melanoma cell invasion with and without MIA. In kind it is cell-based. The text has this:
Both in vitro and in vivo MIA expression levels strictly correlate with an highly invasive phenotype (Bosserhoff et al., 1996, J. Biol. Chem. 271, 490-495; Bosserhoff et al., 1999, J. of Pathology 187, 446-454). Further in vivo studies have shown the necessity of MIA for melanoma invasion and metastasis (Bosserhoff et al., 2001, Melanoma Res. 11, 417-421., Guba, et al., 2000, Br. J. Cancer 83, 1216-1222). We therefore aimed to design MIA-inhibitory peptides based on our experiments which identified fibronectin epitopes interacting with MIA (Stoll et al., 2001; EMBO J. 20: 340-349). Peptides derived from fibronectin which were shown previously to cross-react with MIA were tested in Boyden Chamber assays on their effect on melanoma cell invasion with and without MIA. […] In addition we tested several of the peptide sequences derived from phage display screenings and found peptide SEQ ID NO:16 to be a potential interesting candidate for therapeutic MIA-inhibition. […] We then tested the effect of peptides SEQ ID NO:16 and 22 on growth of metastasis in vivo using the B16/C57B16 model.

For another assay, the system named is melanoma cells. Description: Melanoma (tumor) cell attachment. In kind it is cell-based.
The test system of the next assay is B16 melanoma cells. Description: In vivo experimental metastasis assay, B16/C57Bl6 model. The conditions noted are these: C57Bl6 mice, B16 cells i.v., peptide 550 μg/mouse every day, 18 days; for size of the lung tumor nodules: control 119.9±9.95; for number of black lung nodules of melanoma: control 193±13. As to the method: To measure the effect of SEQ ID NO: 16 and SEQ ID NO:22 on the metastatic potential of B16 melanoma cells in vivo an experimental metastasis assay was used (Bosserhoff et al., 2001, Melanoma Res. 11, 417-421). Intravenous injections of monodispersed tumor cells (1×10^5 cells per animal) were performed into syngeneic C57BI6 mice (n=12 for every peptide as well as control). Peptides (550 μg/mouse) or PBS was injected every day. After 18 days the mice were sacrificed, the lungs removed, washed in PBS, fixed in formalin and the visible tumor nodules on the surface of the lungs were counted and the tumor areas measured.

As to “TSLLISWDAPAVT (from phage display screening) [SEQ ID NO:23, fibronectin-derived peptide]”, in the assay with MIA, the “effect on MIA function (melanoma cell invasion)” value (“effect on MIA function” for short) is listed as “block MIA function”. In the assay on melanoma cells, the “effect on melanoma/tumor cell attachment” value was “inhibit also tumor cell attachment”.
As to “NSLLVSWQPPRAR (from phage display screening) [SEQ ID NO:24, fibronectin-derived peptide]”, in the assay with MIA, the “effect on MIA function” value is listed as “block MIA function”. For the same sequence, the “effect on melanoma/tumor cell attachment” value with melanoma cells is given as “inhibit also tumor cell attachment”.
Regarding “ETTIVITWTPAPR (from phage display screening) [SEQ ID NO:22, fibronectin-derived peptide]”, the “effect on MIA function” value in the assay with MIA is recorded as “block MIA function”. For the same sequence, in the assay with B16 melanoma cells, the “size of the lung tumor nodules” value stood at 87.15±5.32 and the “number of black lung nodules of melanoma” value is listed as 249±26.
On to “RLTLLVLIMPAP (from phage display screening) [SEQ ID NO:16, do-decapeptide from phage display]”, for which the “effect on MIA function” value with MIA was “strongly inhibited”. Moreover, in the assay on melanoma cells, the “effect on melanoma/tumor cell attachment” value is “no effect”. Also, in the assay on B16 melanoma cells, the “size of the lung tumor nodules” value is 78.1±5.03 and the “number of black lung nodules of melanoma” value was 198±19.
